Experimental findings from patent EP0717040A1, “Thiazine or thiazepine derivatives which inhibit NOS” (Japan Tobacco Inc., priority 1994, dated 1996) are described below.

Test [1] has as its target T1, constitutive NO synthase (cNOS) (Rattus norvegicus, UniProt P29476).
T1 construct: cNOS was extracted from a rat cerebellum; from tissue; host or cells: rat cerebellum
Description: Activity to inhibit constitutive NO synthase (cNOS) derived from rat cerebellum; conversion of [3H]-L-arginine to [3H]-L-citrulline. It is filed as biochemical. The method, then:
Activity to inhibit constitutive NO synthase (cNOS) derived from rat cerebellum
The inhibition activity was tested according to a method of P. A. Bush et al. (Biochem, Biophys, Res. Commun., 185, 960-966 (1992)), using [³H]-L-arginine as a substrate and taking the conversion of [³H]-L-arginine to [³H]-L-citrulline as an index of the enzyme activity.
The test was conducted as follows: First, cNOS was extracted from a rat cerebellum with a 50 mM Tris-HCl buffer solution (pH 7.4) which contains 0.1 mM EDTA (ethylenediamine tetraacetate), 0.1 mM EGTA (ethyleneglycol bis(β-aminoethyl ether)-tetraacetate), 0.5 mM DTT (dithiothreitol), 1 µM PMSF (phenylmethylsulfonyl fluoride), 1 µM bestatin A, and 1 µM leupeptin. To the cNOS thus extracted, a 50 mM Tris-HCl buffer solution (pH 7.4) containing 10 µM L-arginine, 10 µM NADPH, 2 mM calcium chloride and calmoduline (0.1 µg), together with a test compound and [³H]-L-arginine were added. The mixture was incubated for 10 minutes at 25°C. The reaction was terminated by adding 20 mM sodium acetate buffer solution (pH 5.5) containing 1 mM L-citrulline, 2 mM EDTA, and 0.2 mM EGTA. The reaction solution was passed through a cation-exchange resin. This eluate was combined with another eluate which was obtained thereafter by eluting with water. To the combined eluate, a liquid scintillation cocktail was further added and its radioactivity (A) was measured. At the same time, the radioactivity (B) with respect to the case where the test compound was not added and the radioactivity (C) with respect to the case where an enzyme fraction was not added, were respectively measured. Then, the rate of cNOS inhibition was calculated in accordance with the following equation. The concentration (IC₅₀), at which the test compound can inhibit 50 % of the enzyme activity, were also calculated. Inhibition rate (%) = {1 - (A - C/B - C)} × 100 [formula]

For test [2], the target named is T2, inducible NO synthase (iNOS) (Rattus norvegicus, UniProt Q06518). Description: Effect on rat-paw carrageenin edema model by inhibition of iNOS. The test is classed as in vivo. Particulars: oral, 1 hour prior to carrageenin, paw volume 4 hours after induction. The method, then: Effect on rat-paw carrageenin edema model by inhibition of inducible NO synthase (iNOS)
To a rat's left leg, 1 % carrageenin solution was subcutaneously administered to induce a paw edema. 4 hours after the induction, paw volume was measured. A test compound was orally administered 1 hour prior to the carrageenin administration. The suppression effect of the test compound was determined.

For test [3], the target named is T3, endothelium nitric oxide synthase (eNOS) (Rattus norvegicus, UniProt Q62600).
T3 construct: from tissue; host or cells: living anesthetized rat
Description: Blood pressure elevating activity in rat by inhibition of eNOS. It is filed as in vivo. The note with it: dose to elevate mean blood pressure by 25 mmHg; anesthetized rat, administered via femoral vein. How it is done: Blood pressure elevating activity in rat by inhibition of endothelium nitric oxide synthase (eNOS) A rat was anesthetized with by peritoneal injection of sodium barbital (300 mg/kg) and catheters were inserted into a femoral artery and a femoral vein. Blood pressure was measured through the catheter inserted in the femoral artery and a test compound was administered through the catheter inserted in the femoral vein. […]

In test [4] the target is T4, neuronal NOS (nNOS) (Rattus norvegicus, UniProt P29476).
T4 construct: from tissue; host or cells: living rat (brain)
Description: Effect on rat cerebral ischemia model by inhibition of nNOS: reperfusion model. The test is classed as in vivo. Particulars: dose 3 µg/kg intravenously, 10 minutes before occlusion, immediately before and 3 hours after reperfusion; infarct area after 48 hours. From the text:
Effect on rat cerebral ischemia model by inhibition of neuronal NOS (nNOS): reperfusion model
A rat (weight: 300 g) was fasted overnight and a middle cerebral artery of the rat was occluded and then reperfused to prepare a cerebral ischemia model, according to the method of Koizumi et al. (Jpn. J. Stroke, 8, 1-8 (1986)). More specifically, a rat breathing naturally was immobilized under anesthesia with a laughing gas - oxygen mixed gas and halothane, and then, underwent cervical median dissection. A silicon-coated nylon thread was inserted into an internal carotid artery from a branched portion at which a right external carotid artery and the internal carotid artery is divided, thereby blocking the middle cerebral artery for 1.5 hours. Thereafter, the occluding of the middle cerebral artery was reperfused by removing a thread. After 48 hours, 6 coronal sections were prepared and stained by means of a triphenyltetrazolium chloride method. Non-stained portions were determined as infarct area. The test compound was intravenously injected 10 minutes before the occlusion of middle cerebral artery, immediately before, and 3 hours after reperfusion. The inhibitory effect of each compound was determined.

In test [5] the target is T2, inducible NO synthase (iNOS). As to the kind of experiment: Activity to inhibit inducible NO synthase (iNOS) derived from rat macrophages; conversion of [3H]-L-arginine to [3H]-L-citrulline. Details: iNOS was extracted from the macrophages which have been treated with lipopolysaccharide and interferon-γ; endogenous in cells; host or cells: rat peritoneal macrophages treated with lipopolysaccharide and interferon-γ. The test is classed as biochemical. How it is done: Activity to inhibit inducible NO synthase (iNOS) derived from rat macrophages
According to partly modified method of Y. Yui et al.(J. Biol. Chem., 266 (19), 12544-12547 (1991)), an iNOS fraction was prepared by applying lipopolysaccharide and interferon-γ to peritoneal macrophages. Thereafter, its enzymatic activity was measured based on the conversion of [³H]-L-arginine to [³H]-L-citrulline, in the same manner as in the case of cNOS.
To the iNOS thus extracted, a 50 mM Tris-HCl buffer solution (pH 7.4) containing 150 µM L-arginine, 5 mM NADPH, 5 mM DTT, 0.5 mM 5,6,7,8-tetrahydro-L-biopterin and 5 µM FAD was added together with a test compound and [³H]-L-arginine. The mixture was incubated for 30 minutes at 37°C. Thereafter, the reaction was terminated by adding a 25 mM sodium acetate buffer solution (pH 5.5) containing 1.25 mM L-citrulline, 2.5 mM EDTA and 0.25 mM EGTA. The reaction solution was passed through a cation-exchange resin. The obtained eluate was combined with the additional eluate obtained thereafter by eluting with water, and the radioactivity of the combined eluate was measured. The inhibition rate of the test compound on iNOS was calculated in the same manner as in Test 1. The concentration (IC₅₀) of the test compound required for inhibiting 50 % of the enzyme activity, were calculated.

In test [6] the target is T4, neuronal NOS (nNOS). Description: Effect on rat cerebral ischemia model by nNOS inhibition: permanent occlusion model. The note with it: dose 10µg/kg+1µg/kg/min; intravenous 5 minutes after occlusion, then infused for 6 hours; cerebral infarct area after 24 hours. It is filed as in vivo. From the text: Effect on rat cerebral ischemia model by neuronal NOS (nNOS) inhibition: permanent occlusion model According to a partly modified method of Tamura et al. (J. Cereb. Blood Flow Matab., 1, 53-60 (1981)), an cerebral ischemia model was established by permanently blocking a rat middle cerebral artery. That is, a rat was anesthetized with laughing gas - oxygen and halothane, and then, a hole was formed at a cranial bone in the periphery of oval foramen, thereby exposing the middle cerebral artery. Subsequently, a middle cerebral artery was clipped and coagulated, thereby established a permanent occlusion model. After 24 hours, a brain was excised out and cerebral infarct area were determined by use of triphenyltetrazolium chloride. A test compound was injected intravenously 5 minutes after the occlusion and subsequently infused for 6 hours. The suppression effect was investigated.

The structures appear in SMILES notation. Counter-ions that a name gives are not always drawn. Like-named read-outs stand apart in the source and are kept apart here.

Regarding `CCOC1CCSC(N)=N1` (stereo not shown) [Example 21, Bis(2-amino-4-ethoxy-5,6-dihydro-4H-1,3-thiazine) fumarate], the figures for the IC50 in test [1] and in test [5] were 20 nM and 30 nM, respectively. Further, in test [2], the “Suppression Effect” value is given as “○”. For the same compound, the ED50 in test [2] (rat, read-out: Suppression Effect (ED₅₀)) came to 0.5 mg/kg. The ED₂₅ in test [3] came out at 0.06 mg/kg. At neuronal NOS (nNOS) [4], the “Inhibitory Effect” value was “○ (3)”.

Regarding `CCC[C@@H]1CCSC(N)=N1.Cl` [Example 31, (R)-2-amino-5,6-dihydro-4-propyl-4H-1,3-thiazine hydrochloride], the IC50 was determined as 20 nM in test [1] (cNOS extracted from rat cerebellum, 10 µM L-arginine, 10 minutes at 25°C, read-out: IC₅₀); 10 nM in test [5] (iNOS from peritoneal macrophages treated with lipopolysaccharide and interferon-γ, 150 µM L-arginine, 30 minutes at 37°C, read-out: IC₅₀). For the same compound, at neuronal NOS (nNOS) [6], the “Suppression Effect” value is reported as “○ (10µg/kg+1µg/kg/min)”. This compound also returned an ED₂₅ in test [3] of 0.46 mg/kg.
